SMILES strings stand for the structures. Activity calls are given as the source filed them. No cut-off for these calls is given here.

For assay [1], the target named is T1, P2Y purinoceptor 2 (Homo sapiens, UniProt P41231). In words: Agonist activity at human P2Y2 receptor expressed in 1321N1 cells assessed as IP accumulation by SPA. It counts as functional, cell-based.
The target in assay [2] is T2, P2Y purinoceptor 6 (Homo sapiens, UniProt Q15077). Put plainly: Agonist activity at human P2Y6 receptor expressed in 1321N1 cells assessed as IP accumulation by SPA at 100 uM. It counts as functional, cell-based.
Target sequence in this assay (Q15077 whole entry): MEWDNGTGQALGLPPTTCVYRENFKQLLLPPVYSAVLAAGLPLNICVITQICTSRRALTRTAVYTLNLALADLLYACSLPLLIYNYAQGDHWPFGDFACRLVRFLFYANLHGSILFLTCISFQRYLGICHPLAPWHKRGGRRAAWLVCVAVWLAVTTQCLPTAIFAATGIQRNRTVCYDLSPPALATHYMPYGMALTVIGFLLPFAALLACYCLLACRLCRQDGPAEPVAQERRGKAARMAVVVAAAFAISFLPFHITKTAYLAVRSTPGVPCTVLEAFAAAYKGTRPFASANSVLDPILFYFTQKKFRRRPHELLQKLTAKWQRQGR
The target of assay [3] is T2, P2Y purinoceptor 6. Put plainly: Agonist activity at human P2Y6 receptor expressed in 1321N1 cells assessed as IP accumulation by SPA. It counts as functional, cell-based.
Target sequence in this assay (Q15077 whole entry): as above
Assay [4] concerns the target T1, P2Y purinoceptor 2. In words: Antagonist activity at human P2Y2 receptor assessed as inhibition of UTP-induced IP accumulation at 100 uM. The assay is classed as functional.
The target in assay [5] is T2, P2Y purinoceptor 6. In words: Antagonist activity at human P2Y6 receptor assessed as inhibition of UDP-induced IP accumulation at 100 uM.
Target sequence in this assay (Q15077 whole entry, looked up): as the sequence (Q15077 whole entry) above
Assay [6] deals with T3, P2Y purinoceptor 4 (Homo sapiens, UniProt P51582). In words: Agonist activity at human P2Y4 receptor expressed in 1321N1 cells assessed as IP accumulation by SPA at 1 uM. It counts as functional, cell-based.
Target sequence in this assay (P51582 whole entry): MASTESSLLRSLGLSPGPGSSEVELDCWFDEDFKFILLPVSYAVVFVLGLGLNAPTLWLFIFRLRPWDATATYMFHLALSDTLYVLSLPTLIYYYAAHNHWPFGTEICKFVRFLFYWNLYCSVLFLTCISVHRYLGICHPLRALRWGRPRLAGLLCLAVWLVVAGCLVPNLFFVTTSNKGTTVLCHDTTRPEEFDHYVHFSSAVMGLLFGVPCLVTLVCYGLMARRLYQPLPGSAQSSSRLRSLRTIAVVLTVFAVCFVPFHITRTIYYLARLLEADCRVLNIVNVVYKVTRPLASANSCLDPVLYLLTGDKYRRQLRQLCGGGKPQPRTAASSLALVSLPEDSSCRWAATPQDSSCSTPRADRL
In assay [7] the target is T1, P2Y purinoceptor 2. In words: Agonist activity at human P2Y2 receptor expressed in 1321N1 cells assessed as IP accumulation by SPA at 1 uM. The assay is classed as functional, cell-based.
The target in assay [8] is T2, P2Y purinoceptor 6. Put plainly: Agonist activity at human P2Y6 receptor expressed in 1321N1 cells assessed as IP accumulation by SPA at 1 uM. The assay is classed as functional, cell-based.
Target sequence in this assay (Q15077 whole entry): as the sequence (Q15077 whole entry) above
Assay [9] addresses T1, P2Y purinoceptor 2. Put plainly: Agonist activity at human P2Y2 receptor expressed in 1321N1 cells assessed as IP accumulation by SPA at 100 uM. It counts as functional, cell-based.
Assay [10] concerns the target T3, P2Y purinoceptor 4. Put plainly: Agonist activity at human P2Y4 receptor expressed in 1321N1 cells assessed as IP accumulation by SPA. It counts as functional, cell-based.
Target sequence in this assay (P51582 whole entry): as the sequence (P51582 whole entry) above
Assay [11] has as its target T3, P2Y purinoceptor 4. In words: Agonist activity at human P2Y4 receptor expressed in 1321N1 cells assessed as IP accumulation by SPA at 100 uM. The assay is classed as functional, cell-based.
Target sequence in this assay (P51582 whole entry): as above
In assay [12] the target is T3, P2Y purinoceptor 4. Put plainly: Antagonist activity at human P2Y4 receptor assessed as inhibition of UTP-induced IP accumulation at 100 uM.
Target sequence in this assay (P51582 whole entry, looked up): as the sequence (P51582 whole entry) above
In assay [13] the target is P2Y purinoceptor 6 (Rattus norvegicus, UniProt Q63371). Put plainly: Agonist activity at rat P2Y6 receptor assessed as IP accumulation by SPA. It counts as functional.
The species entered for assay [14] is Homo sapiens. In words: Selectivity for human P2Y6 over P2Y4.
Assay [15] is filed under the species Homo sapiens. In words: Selectivity for human P2Y6 over P2Y2.

T1 sequence (P41231 whole entry): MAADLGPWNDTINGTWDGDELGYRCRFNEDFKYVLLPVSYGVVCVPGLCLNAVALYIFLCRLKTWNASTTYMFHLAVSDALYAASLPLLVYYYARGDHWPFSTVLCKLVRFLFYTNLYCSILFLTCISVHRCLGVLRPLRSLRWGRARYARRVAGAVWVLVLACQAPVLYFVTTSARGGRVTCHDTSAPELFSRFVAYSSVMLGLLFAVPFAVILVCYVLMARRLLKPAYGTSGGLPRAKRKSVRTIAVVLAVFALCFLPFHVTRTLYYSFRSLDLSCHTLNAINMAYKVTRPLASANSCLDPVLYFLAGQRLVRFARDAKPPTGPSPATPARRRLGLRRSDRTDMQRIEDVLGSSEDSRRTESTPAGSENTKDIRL
Chain of P2Y purinoceptor 6 (Rattus norvegicus, UniProt Q63371) (Q63371 whole entry): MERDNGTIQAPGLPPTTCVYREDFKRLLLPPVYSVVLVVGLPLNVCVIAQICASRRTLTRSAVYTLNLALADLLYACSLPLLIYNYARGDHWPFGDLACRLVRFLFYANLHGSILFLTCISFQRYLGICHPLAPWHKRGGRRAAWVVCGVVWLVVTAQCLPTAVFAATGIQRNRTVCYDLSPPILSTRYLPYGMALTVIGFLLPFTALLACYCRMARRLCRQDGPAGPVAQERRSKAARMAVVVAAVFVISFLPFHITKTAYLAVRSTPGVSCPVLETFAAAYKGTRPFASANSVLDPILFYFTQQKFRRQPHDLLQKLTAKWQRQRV

`O=c1cc(O)n([C@@H]2O[C@H](COP(=O)(O)OP(=O)(O)OP(=O)(O)O)[C@@H](O)[C@H]2O)c(=O)[nH]1`: the EC50 at P2Y purinoceptor 2 [1] was greater than 1000 nM; at P2Y purinoceptor 6 [3], greater than 100000 nM; on P2Y purinoceptor 4 [10], greater than 100000 nM. In addition, the Activity on P2Y purinoceptor 6 [2] is 43%; at P2Y purinoceptor 4 [6], 11%; on P2Y purinoceptor 2 [7] it was 6%; on P2Y purinoceptor 6 [8], 0%; at P2Y purinoceptor 2 [9], 80%; at P2Y purinoceptor 4 [11] it was 12%. Moreover, the result on P2Y purinoceptor 2 [4], on P2Y purinoceptor 6 [5] and on P2Y purinoceptor 4 [12] was inactive.

Turning to `O=c1[nH]c(=O)n([C@@H]2O[C@H](COP(=O)(O)OP(=O)(O)O)[C@@H](O)[C@H]2O)cc1Br`, the EC50 stood at 130 nM at P2Y purinoceptor 6 [13], 3670 nM at P2Y purinoceptor 2 [1], 151 nM at P2Y purinoceptor 6 [3] and 7200 nM on P2Y purinoceptor 4 [10]. Moreover, the results for the Ratio in the assay listed under Homo sapiens [14] and in the assay listed under Homo sapiens [15] were 48 and 24, respectively.

Turning to `O=C(Cn1c(=O)ccn([C@@H]2O[C@H](COP(=O)(O)OP(=O)(O)OP(=O)(O)O)[C@@H](O)[C@H]2O)c1=O)c1ccccc1`, the EC50 on P2Y purinoceptor 2 [1], on P2Y purinoceptor 6 [3] and at P2Y purinoceptor 4 [10] was greater than 1000 nM throughout. Further, the Activity on P2Y purinoceptor 6 [2] was 100%; on P2Y purinoceptor 4 [6], 10%; at P2Y purinoceptor 2 [7] it was 38%; on P2Y purinoceptor 6 [8], 27%; at P2Y purinoceptor 2 [9], 103%; at P2Y purinoceptor 4 [11], 54%.

With `Cc1cc(=O)n([C@@H]2O[C@H](COP(=O)(O)OP(=O)(O)OP(=O)(O)O)[C@@H](O)[C@H]2O)c(=O)[nH]1`, the EC50 at P2Y purinoceptor 2 [1] was greater than 1000 nM; on P2Y purinoceptor 6 [3] it was greater than 1000 nM; at P2Y purinoceptor 4 [10], greater than 100000 nM. The Activity at P2Y purinoceptor 6 [2] is 72%; on P2Y purinoceptor 4 [6], 8%; at P2Y purinoceptor 2 [7] it was 18%; at P2Y purinoceptor 6 [8], 0%; on P2Y purinoceptor 2 [9] it was 93%; on P2Y purinoceptor 4 [11], 29%. Moreover, the outcome at P2Y purinoceptor 2 [4], at P2Y purinoceptor 6 [5] and on P2Y purinoceptor 4 [12] was inactive.

As to `O=c1ccn([C@@H]2O[C@H](COP(=O)(O)OP(=O)(O)O)[C@@H](O)[C@H]2O)c(=S)[nH]1`, the EC50 was greater than 1000 nM on P2Y purinoceptor 2 [1], 239 nM at P2Y purinoceptor 6 [3] and greater than 1000 nM at P2Y purinoceptor 4 [10]. The Activity at P2Y purinoceptor 4 [6] was 18%; at P2Y purinoceptor 2 [7], 42%; at P2Y purinoceptor 2 [9], 91%; at P2Y purinoceptor 4 [11], 73%.

For orientation: EC50 means the concentration that produces a half-maximal response.

The record behind these values is ChEMBL document CHEMBL1137364, “Synthesis and structure-activity relationships of uracil nucleotide derivatives and analogues as agonists at human P2Y2, P2Y4, and P2Y6 receptors” (J Med Chem, 2006).
